Source: US20240174680A1, “CDK2 INHIBITORS AND METHODS OF USING THE SAME” (Cedilla Therapeutics, Inc., priority 2021, published 2024)
pIC50: −log10 of the molar value.

Target: CDK2/Cyclin E1 (Homo sapiens, UniProt P24941)
Assay: CDK2/Cyclin E1 Caliper LabChip EZ Reader mobility shift assay
Assay type: biochemical
Parameters: purchased Eurofins 14-475
Conditions: read-out: Caliper Assay (CDK2/CCNE1): IC50
Outline: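 Substrate-to-product conversion of fluorescent peptide (1.5 μM final) read by capillary electrophoresis after 100 min reaction, EDTA-quenched. Enzyme (2.5 nM final) and ATP (100 μM final) were preincubated 30 min with inhibitor dilutions first. % activity vs concentration fitted four-parameter for IC50.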

SMILES | pIC50
CNC(=O)[C@@H](NC(=O)[C@@H]1CN(C(=O)c2cnn(Cc3ccccc3)c2)CC12CN(C(=O)[C@H]1CC1(C)C)C2)[C@@H](C)OCC1CCCCC1 [I-123A, (S)-6-(1-benzyl-1H-pyrazole-4-carbonyl)-N-((2S,3R)-3-(cyclohexylmethoxy)-1-(methylamino)-1-oxobutan-2-yl)-2-((S)-2,2-dimethylcyclopropane-1-carbonyl)-2,6-diazaspiro[3.4]octane-8-carboxamide] | ≥ 8.00
CNC(=O)[C@@H](NC(=O)[C@H]1CN(Cc2cnco2)CC12CN(C(=O)[C@H]1CC1(C)C)C2)[C@@H](C)OCc1ccccc1 [I-78B] | < 5.00
CNC(=O)[C@@H](NC(=O)[C@H]1CN(S(=O)(=O)c2cnn(Cc3ccccc3)c2)CC12CN(C(=O)[C@H]1CC1(C)C)C2)[C@@H](C)OCc1ccccc1 [I-79B] | < 5.00
C[C@@H](OCC1CCCCC1)[C@H](NC(=O)[C@H]1CN(C(=O)c2cn[nH]c2)CC12CN(C(=O)[C@H]1CC1(C)C)C2)C(=O)N1CCC(F)(F)CC1 [I-154B] | 5.00 to 6.00
CNC(=O)[C@@H](NC(=O)[C@H]1CN(C(=O)c2cnn(Cc3ccccc3)c2)CC12CN(C(=O)CC1CCC1)C2)[C@@H](C)OCc1ccccc1 [I-27B] | < 5.00
CNC(=O)[C@@H](NC(=O)[C@@H]1CN(C(=O)c2scnc2C2CCCC2)CC12CN(C(=O)[C@H]1CC1(C)C)C2)[C@@H](C)OCC1CCCCC1 [I-224B] | < 5.00
CNC(=O)[C@@H](NC(=O)[C@H]1CN(C(=O)c2sc(Cl)nc2Cl)CC12CN(C(=O)[C@H]1CC1(C)C)C2)[C@@H](C)OCC1CCCCC1 [I-232B] | 5.00 to 6.00
CNC(=O)[C@H](CCCc1ccccc1)NC(=O)[C@H]1CN(C(=O)c2cnn(Cc3ccccc3)c2)CC12CN(C(=O)[C@H]1CC1(C)C)C2 [I-101B] | < 5.00
CNC(=O)[C@@H](NC(=O)[C@@H]1CN(C(=O)c2cnn(Cc3ccccc3)c2)CC12CN(C(=O)CC1CCC1)C2)[C@@H](C)OCc1ccccc1 [I-27A] | 5.00 to 6.00
CNC(=O)[C@@H](NC(=O)[C@@H]1CN(Cc2ccccn2)CC12CN(C(=O)[C@H]1CC1(C)C)C2)[C@@H](C)OCc1ccccc1 [I-40A] | < 5.00
C[C@@H](NC(=O)[C@@H]1CN(C(=O)c2cnn(Cc3ccccc3)c2)CC12CN(C(=O)[C@H]1CC1(C)C)C2)c1cccc(F)c1 [I-128A] | < 5.00
CO[C@H]1COCC[C@H]1NC(=O)[C@@H]1CN(C(=O)c2cnn(Cc3ccccc3)c2)CC12CN(C(=O)[C@H]1CC1(C)C)C2 [I-134A] | < 5.00
CNC(=O)[C@@H](NC(=O)[C@H]1CN(C(=O)c2cnn(Cc3ccccc3)c2)CC12CN(C(=O)C1(CCOC)CC1)C2)[C@@H](C)OCc1ccccc1 [I-102B] | < 5.00
CNC(=O)[C@@H](NC(=O)[C@@H]1CN(C(=O)c2cnc[nH]2)CC12CN(C(=O)[C@H]1CC1(C)C)C2)[C@@H](C)OCc1ccccc1 [I-44A] | < 5.00
C[C@@H](NC(=O)[C@H]1CN(C(=O)c2cnn(Cc3ccccc3)c2)CC12CN(C(=O)[C@H]1CC1(C)C)C2)c1cccc(F)c1 [I-128B] | < 5.00
CC1(C)C[C@@H]1C(=O)N1CC2(CN(C(=O)c3cnn(Cc4ccccc4)c3)C[C@@H]2C(=O)N[C@H]2CCCN(C(=O)c3ccccc3)C2)C1 [I-83B] | < 5.00
CNC(=O)[C@@H](NC(=O)[C@@H]1CN(C(=O)c2cnc(CC3CC3)s2)CC12CN(C(=O)[C@H]1CC1(C)C)C2)[C@@H](C)OCC1CCCCC1 [I-177A] | 6.00 to 7.00
CNC(=O)[C@@H](NC(=O)[C@H]1CN(C(=O)c2sc(COC)nc2C)CC12CN(C(=O)[C@H]1CC1(C)C)C2)[C@@H](C)OCC1CCCCC1 [I-162B] | < 5.00
CNC(=O)[C@@H](NC(=O)[C@H]1CN(C(=O)c2sc(C(C)C)nc2C)CC12CN(C(=O)[C@H]1CC1(C)C)C2)[C@@H](C)OCC1CCCCC1 [I-227B] | < 5.00
C[C@@H](OCC1CCCCC1)[C@H](NC(=O)[C@@H]1CN(C(=O)c2cnn(Cc3ccccc3)c2)CC12CN(C(=O)[C@H]1CC1(C)C)C2)C(=O)N1CCC(F)(F)CC1 [I-149A] | ≥ 8.00
CNC(=O)[C@@H](NC(=O)[C@H]1CN(C(=O)c2cncs2)CC12CN(C(=O)[C@H]1CC1(C)C)C2)[C@@H](C)OCc1ccccc1 [I-24B] | < 5.00
CNC(=O)[C@@H](NC(=O)[C@H]1CN(C(=O)c2cnco2)CC12CN(C(=O)[C@H]1CC1(C)C)C2)[C@@H](C)OCc1ccccc1 [I-39B] | < 5.00

The remaining lines, values ahead:

pIC50 | SMILES
7.00 to 8.00 | C[C@@H](OCc1ccc(Cl)cc1)[C@@H](CO)NC(=O)[C@@H]1CN(C(=O)c2cncs2)CC12CN(C(=O)[C@H]1CC1(C)C)C2 [I-404]
≥ 8.00 | COC[C@H]1CCCN(C(=O)[C@@H](NC(=O)[C@@H]2CN(C(=O)c3cncs3)CC23CN(C(=O)[C@H]2CC2(C)C)C3)[C@@H](C)OCc2ccc(Cl)cc2F)C1 [I-317]
7.00 to 8.00 | C[C@@H](OCC1CCCCC1)[C@H](NC(=O)[C@@H]1CN(C(=O)c2cnn(Cc3ccccc3)c2)CC12CN(C(=O)[C@H]1CC1(C)C)C2)C(=O)N1CC[C@@H]1CN [I-270]
7.00 to 8.00 | CNC(=O)[C@@H](NC(=O)[C@@H]1CN(C(=O)c2cnn(Cc3ccccc3)c2)CC12CN(C(=O)[C@H]1CC1(C)C)C2)[C@@H](C)OC[C@H]1CC[C@@H](O)CC1 [I-424]
< 5.00 | Cc1ccc(CNC(=O)[C@@H]2CN(C(=O)c3cnn(Cc4ccncc4F)c3)CC23CN(C(=O)[C@H]2CC2(C)C)C3)nn1 [I-35]
≥ 8.00 | C[C@@H]1C[C@H](C)CN(C(=O)[C@@H](NC(=O)C2CN(C(=O)c3cncs3)CC23CN(C(=O)[C@H]2CC2(C)C)C3)[C@@H](C)OCC2CCCCC2)C1 (stereo partly drawn) [I-172]
< 5.00 | CNC(=O)[C@@H](NC(=O)[C@@H]1CN(C(=O)c2cncs2)CC12CN(CC1CCOC1)C2)[C@@H](C)OCC12CCC(CC1)OC2 (stereo partly drawn) [I-345]
≥ 8.00 | C[C@@H](OCC1CCCCC1)[C@H](NC(=O)C1CN(C(=O)c2cnn(Cc3ccccc3)c2)CC12CN(C(=O)[C@H]1CC1(C)C)C2)C(=O)NCCC(=O)O (stereo partly drawn) [I-353]
≥ 8.00 | C[C@@H](OCC1CCCCC1)[C@H](NC(=O)C1CN(C(=O)c2cnn(Cc3ccccc3)c2)CC12CN(C(=O)[C@H]1CC1(C)C)C2)C(=O)N1CC2(CCC2)C1 (stereo partly drawn) [I-107]
≥ 8.00 | C[C@@H](OCC1CCCCC1)[C@H](NC(=O)[C@@H]1CN(C(=O)c2cncs2)CC12CN(C(=O)[C@H]1CC1(C)C)C2)C(=O)N1CCNCC1 [I-328]
6.00 to 7.00 | CNC(=O)[C@@H](NC(=O)[C@@H]1CN(C(=O)c2nncs2)CC12CN(C(=O)[C@H]1CC1(C)C)C2)[C@@H](C)OCC1CCCCC1 [I-246]
≥ 8.00 | CNC(=O)[C@@H](NC(=O)[C@@H]1CN(C(=O)c2cnn(Cc3ccc(F)cc3)c2)CC12CN(C(=O)[C@H]1CC1(C)C)C2)[C@@H](C)OCC1CCC(F)(F)CC1 [I-170]
≥ 8.00 | C[C@@H](OCC12CCC(CC1)OC2)[C@H](NC(=O)[C@@H]1CN(C(=O)c2cncs2)CC12CN(C(=O)[C@H]1CC1(C)C)C2)C(=O)N1CCC[C@H](COC(F)(F)F)C1 [I-460]
7.00 to 8.00 | CNC(=O)[C@@H](NC(=O)[C@@H]1CN(C(=O)c2cnn(Cc3ccccc3)c2)CC12CN(C(=O)[C@H]1CC1(C)C)C2)C(C)(C)OCc1ccccc1 [I-393]
≥ 8.00 | C[C@@H](OCC1CCCCC1)[C@H](NC(=O)[C@@H]1CN(C(=O)c2cnn(Cc3ccccc3)c2)CC12CN(C(=O)[C@H]1CC1(C)C)C2)C(=O)N1CCC(c2cnc[nH]2)CC1 [I-438]
6.00 to 7.00 | C[C@@H](OCC1CCCCC1)[C@H](NC(=O)[C@@H]1CN(C(=O)c2cnn(C(F)(F)F)c2)CC12CN(C(=O)[C@H]1CC1(C)C)C2)C(=O)N1CCCCC1 [I-115]
≥ 8.00 | CNC(=O)[C@@H](NC(=O)[C@@H]1CN(C(=O)c2cncs2)CC12CN(C(=O)[C@H]1CC1(C)C)C2)[C@@H](C)OC[C@H]1CC[C@@H](C)CC1 [I-354]
7.00 to 8.00 | [2H]C([2H])([2H])OC[C@H]1CCCN(C(=O)[C@@H](NC(=O)[C@@H]2CN(C(=O)c3cncs3)CC23CN(C(=O)C(C)(C)C2CC2)C3)[C@@H](C)OCC23CCC(CC2)OC3)C1 [I-459]
< 5.00 | CC(C)(O)C(NC(=O)[C@@H]1CN(C(=O)c2cnco2)CC12CN(C(=O)[C@H]1CC1(C)C)C2)c1cccc(C2CCOCC2)n1 (stereo partly drawn) [I-436]
< 5.00 | CNC(=O)[C@@H](NC(=O)[C@@H]1CN(C(=O)c2cnn(Cc3ccccc3)c2)CC12CN(CC(=O)O)C2)[C@@H](C)OCC1CCCCC1 [I-294, 2-((S)-6-(1-benzyl-1H-pyrazole-4-carbonyl)-8-(((2S,3R)-3-(cyclohexylmethoxy)-1-(methylamino)-1-oxobutan-2-yl)carbamoyl)-2,6-diazaspiro[3.4]octan-2-yl)acetic acid]
7.00 to 8.00 | C[C@@H](OCC1CCCCC1)[C@@H](CO)NC(=O)[C@@H]1CN(C(=O)c2cncs2)CC12CN(C(=O)[C@H]1CC1(C)C)C2 [I-307]
≥ 8.00 | CNC(=O)[C@@H](NC(=O)[C@@H]1CN(C(=O)c2cnn(Cc3ccccc3)c2)CC12CN(C(=O)[C@H]1CC1(C)C)C2)[C@@H](C)OCC1CCC(C)(C)CC1 [I-372]
< 5.00 | Cc1ccc(CNC(=O)[C@@H]2CN(C(=O)c3cnn(Cc4ccccc4)c3)CC23CN(C(=O)[C@H]2CC2(C)C)C3)cn1 [I-364]
7.00 to 8.00 | CNC(=O)[C@@H](NC(=O)[C@@H]1CN(C(=O)c2cnn(Cc3ccccc3)c2)CC12CN(C(=O)[C@H]1CC1(C)C)C2)[C@@H](C)OCC1C[C@@H](C)C[C@@H](C)C1 (stereo partly drawn) [I-249]
< 5.00 | Cc1ccc(CNC(=O)[C@@H]2CN(C(=O)c3cnc(Cc4ccccc4)s3)CC23CN(C(=O)[C@H]2CC2(C)C)C3)nn1 [I-405]
7.00 to 8.00 | C[C@@H](OCC1CCCCC1)[C@H](NC(=O)[C@@H]1CN(C(=O)c2cnn(Cc3ccccc3)c2)CC12CN(C(=O)[C@H]1CC1(C)C)C2)C(=O)N1CCC[C@@H]1CN [I-238]
6.00 to 7.00 | C[C@@H](OCC1(C(F)(F)F)CC1)[C@H](NC(=O)[C@@H]1CN(C(=O)c2cncs2)CC12CN(C(=O)[C@H]1CC1(C)C)C2)C(=O)N1CCCCC1 [I-285]
6.00 to 7.00 | CNC(=O)[C@@H](NC(=O)[C@@H]1CN(C(=O)c2cncs2)CC12CN(C(=O)[C@H]1CC1(C)C)C2)C1(OCc2ccccc2)CC1 [I-375]
7.00 to 8.00 | CNC(=O)[C@@H](NC(=O)[C@@H]1CN(C(=O)c2cncs2)CC12CN(C(=O)[C@H]1CC1(C)C)C2)C1(OCC2CCCCC2)CC1 [I-401]
